The source of these data is patent US20050228180A1, “Alpha, omega-dicarboximide derivatives as useful uro-selective a1a adrenoceptor blockers” (priority 2002, published 2005).

For one data set, the target named is T1, α1B adrenoceptor (Rattus norvegicus, UniProt P15823).
T1 construct: from tissue; host or cells: rat liver membranes
T1 sequence (P15823 1-515): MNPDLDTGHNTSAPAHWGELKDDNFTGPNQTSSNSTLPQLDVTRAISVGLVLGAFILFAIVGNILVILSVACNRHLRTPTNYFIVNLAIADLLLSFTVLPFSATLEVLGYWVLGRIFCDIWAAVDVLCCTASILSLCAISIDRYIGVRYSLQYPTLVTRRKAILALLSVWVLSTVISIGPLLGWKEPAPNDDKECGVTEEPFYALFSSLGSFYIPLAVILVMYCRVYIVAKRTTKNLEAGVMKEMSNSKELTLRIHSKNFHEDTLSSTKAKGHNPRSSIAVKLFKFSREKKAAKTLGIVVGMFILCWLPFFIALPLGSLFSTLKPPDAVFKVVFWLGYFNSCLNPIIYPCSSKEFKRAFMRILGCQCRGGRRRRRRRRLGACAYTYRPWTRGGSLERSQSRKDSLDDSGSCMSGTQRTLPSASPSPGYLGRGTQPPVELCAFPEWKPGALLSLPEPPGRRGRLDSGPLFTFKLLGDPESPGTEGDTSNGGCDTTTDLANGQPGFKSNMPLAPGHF
In words: Radioligand binding, [3H] prazosin displacement, rat liver membranes. The settings on record: read-out: Affinity (Ki) α1B (Rat Liver). In a few lines: (§1)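 Displacement of [3H]prazosin measured by filtration and counting, with Ki from IC50 via Cheng–Prusoff and nonspecific binding set by 300 nM prazosin. Native rat submaxillary (α1A) or liver (α1B) membranes, 150-250 μg protein, 1 h at 24-25° C in Tris/EDTA pH 7.4.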

Another data set deals with T2, α1A adrenoceptor (Rattus norvegicus, UniProt P43140).
T2 construct: from tissue; host or cells: rat submaxillary gland membranes
T2 sequence (P43140 1-466): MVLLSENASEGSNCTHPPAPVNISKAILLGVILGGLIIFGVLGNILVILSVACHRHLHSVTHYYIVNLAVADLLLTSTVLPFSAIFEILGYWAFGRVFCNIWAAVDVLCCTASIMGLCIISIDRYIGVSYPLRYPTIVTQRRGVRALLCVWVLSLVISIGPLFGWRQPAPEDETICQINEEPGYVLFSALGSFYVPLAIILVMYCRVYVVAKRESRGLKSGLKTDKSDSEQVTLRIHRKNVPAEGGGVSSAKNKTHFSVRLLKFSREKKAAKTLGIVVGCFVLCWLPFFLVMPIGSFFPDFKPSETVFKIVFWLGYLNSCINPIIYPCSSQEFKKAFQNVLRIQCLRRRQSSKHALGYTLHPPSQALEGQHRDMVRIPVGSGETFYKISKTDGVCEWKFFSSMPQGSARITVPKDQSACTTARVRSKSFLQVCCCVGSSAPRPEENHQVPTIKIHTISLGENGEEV
The experiment in a line: Radioligand binding, [3H] prazosin displacement, rat submaxillary membranes. Particulars: for Ki: [3H] prazosin displacement, rat submaxillary membranes, read-out: Affinity (Ki) α1A (Rat Submaxillary); for α1B/α1A: ratio of binding affinities, rat liver / rat submaxillary. An outline of the steps: as §1

A further data set addresses T3, α1D adrenoceptor (aorta) (Rattus norvegicus, UniProt P23944).
T3 construct: Isolated tissues were mounted in organ bath containing Krebs Henseleit buffer; from tissue; host or cells: isolated rat aorta
T3 sequence (P23944 1-561): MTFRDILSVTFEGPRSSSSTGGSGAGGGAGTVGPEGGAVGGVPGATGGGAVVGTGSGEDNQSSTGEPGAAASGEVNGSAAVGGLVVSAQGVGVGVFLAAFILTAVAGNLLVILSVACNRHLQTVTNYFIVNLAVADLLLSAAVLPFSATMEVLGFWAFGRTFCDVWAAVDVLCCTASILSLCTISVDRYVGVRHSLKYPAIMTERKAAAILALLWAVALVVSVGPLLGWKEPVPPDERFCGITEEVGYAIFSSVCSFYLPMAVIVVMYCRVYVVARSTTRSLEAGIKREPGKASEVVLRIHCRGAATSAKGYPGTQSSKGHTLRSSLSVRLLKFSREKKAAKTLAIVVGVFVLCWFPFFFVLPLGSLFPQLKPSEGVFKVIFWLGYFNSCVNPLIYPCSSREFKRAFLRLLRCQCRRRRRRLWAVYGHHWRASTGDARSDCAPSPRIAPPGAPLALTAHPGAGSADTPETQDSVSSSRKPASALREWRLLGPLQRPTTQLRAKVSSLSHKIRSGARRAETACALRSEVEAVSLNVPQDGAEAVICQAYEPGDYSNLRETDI
In words: In vitro functional assay, isolated aorta, norepinephrine contraction. The data set is classed as cell-based. The settings on record: read-out: α Adrenoceptor Subtype (pKB) α1D (converted). An outline of the steps: (§2)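 Rat aorta, spleen and prostate strips from urethane-anaesthetised male Wistar rats in Krebs-Henseleit at 37 °C (95% O2/5% CO2), 2 g or 1 g resting tension, 2 h equilibration. Norepinephrine (aorta) or phenylephrine (spleen, prostate) contraction curves run without and with compound at […]; antagonist affinity given as pKB.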

Data set [1] concerns the target T4, α1A adrenoceptor (prostate) (Rattus norvegicus, UniProt P43140).
T4 construct: from tissue; host or cells: isolated prostate tissue
T4 sequence (P43140 1-466): T2 sequence (P43140 1-466)
The experiment in a line: In vitro functional assay, isolated prostate, phenylepinephrine contraction. The data set is classed as cell-based. Particulars: for Selectivity α1B/α1A / Selectivity α1D/α1A: functional, from pKB; for Kb: rat prostate, phenylepinephrine, read-out: α Adrenoceptor Subtype (pKB) α1A (converted). An outline of the steps:
as §2

The target in data set [2] is T5, α1B adrenoceptor (spleen) (Rattus norvegicus, UniProt P15823).
T5 construct: Isolated tissues were mounted in organ bath containing Krebs Henseleit buffer; from tissue; host or cells: isolated rat spleen
T5 sequence (P15823 1-515): T1 sequence (P15823 1-515)
In words: In vitro functional assay, isolated spleen, phenylepinephrine contraction. It is filed as cell-based. Particulars: read-out: α Adrenoceptor Subtype (pKB) α1B (converted). An outline of the steps: as §2

The next data set has as its target α1-adrenoceptor. The settings on record: background statement; cited from earlier work.

In the case of `CC(C)Oc1ccccc1N1CCN(CCCN2C(=O)C3CC=CC(O)C3C2=O)CC1.Cl` (centres unmarked) [Compound No. 41, 2-[3-{4-(2-Isopropoxyphenyl)piperazin-1-yl}propyl]-4-hydroxy-3a,4,7,7a-tetrahydro-1H-isoindole-1,3(2H)-dione hydrochloride], the melting point lay within 186 to 190 °C. Moreover, at α1B adrenoceptor, the Ki is 105 nM. At α1A adrenoceptor, the Ki is 0.3 nM and the α1B/α1A worked out at 350. Also, the Kb at α1D adrenoceptor (aorta) is 2.45 nM. Also, in data set [1], the “Selectivity α1B/α1A” value worked out at 132, the “Selectivity α1D/α1A” value amounted to 4.8 and the Kb was 0.513 nM. In addition, the Kb in data set [2] was 67.6 nM.

In the case of `CC(=O)OC1C=CC(OC(C)=O)C2C(=O)N(CCCN3CCN(c4ccccc4OC(C)C)CC3)C(=O)C12.Cl` (centres unmarked) [Compound No. 73, 2-[3-{4-(2-Isopropoxyphenyl)piperazin-1-yl}propyl]-4,7-diacetoxy-3a,4,7,7a-tetrahydro-1H-isoindole-1,3(2H)-dione hydrochloride], the melting point lay within 176 to 177 °C. Further, on α1B adrenoceptor, the Ki was determined as 192 nM. Moreover, at α1A adrenoceptor, the Ki came out at 8.45 nM and the α1B/α1A is given as 23.

`CCOc1ccccc1N1CC[N+]([O-])(CCCN2C(=O)C3CC=CCC3C2=O)CC1` (centres unmarked) [compound 04, 2-[3-{4-(2-Ethoxyphenyl)piperazin-1-yl, 1-N-oxide}propyl]-3a,4,7,7a-tetrahydro-1H-isoindole-1,3(2H)-dione] returned a melting point of 75 to 80 °C. Besides, the inhibition constant Ki on α1B adrenoceptor was above 1000 nM. On α1A adrenoceptor, the Ki was 22 nM and the α1B/α1A is listed as above 45. The Kb at α1D adrenoceptor (aorta) is 81.3 nM. Besides, in data set [1], the “Selectivity α1B/α1A” value was determined as 2.9, the “Selectivity α1D/α1A” value worked out at 33 and the Kb is 2.45 nM. Further, the Kb in data set [2] is 7.08 nM.

On to `COc1cc2nc(N3CCN(C(=O)c4ccco4)CC3)nc(N)c2cc1OC` [prazosin], for which the “α1-adrenergic blocking activity (pKi)” value at α1-adrenoceptor was above 8.
